For experiment [1], the system named is endothelial cell and pericyte markers (MECA-32, NG2). Kind of experiment: Co-localization of fluorescein-conjugated peptides with vascular markers. It counts as in vivo, mouse. The following applies: fluorescein-conjugated peptide i.v. The procedure:
To confirm that intravenous administration of phage libraries selects for phage carrying peptides that bind to endothelial molecules specific for the target vasculature, tissues were collected following i.v. infusion with the various fluorescein-conjugated peptides, sectioned, and evaluated with endothelial cell markers.
(§1) For immunohistochemistry, frozen slides were pre-incubated with blocking buffer (1×PNB from NEN Biosciences) for one hour, washed several times in 1×PBS and incubated with the primary antibody of interest overnight at 4° C. The cell-specific antibodies used were rat monoclonal anti-mouse CD31 (1:200; BD Pharmingen), rat monoclonal anti-mouse MECA-32 (1:200; BD Pharmingen), rabbit polyclonal anti-mouse NG2 (1:200; Chemicon), and rat monoclonal anti-mouse PDGFRb (CD140b) (1:200; eBioscience). The corresponding secondary antibodies; Cy-3 donkey anti-rabbit IgG and Rhodamine Red donkey anti-rat IgG (Jackson ImmunoResearch), were used at a 1:200 dilution and incubated for one hour at room temperature. The following species-matched immunoglobulins were used as negative controls; rabbit IgG (Vector Laboratories) and rat IgG (Jackson ImmunoResearch) at a 1:200 dilution. The slides were washed several times in 1×PBS and mounted in Vectashield Mounting Medium with DAPI (Vector Laboratories). Hematoxylin and eosin (H&E) staining was performed for histological grading of adjacent sections by standard methods, and lesions were graded as previously described (Lopez and Hanahan, 2002).
The primary analysis involved immunostaining with a mouse pan-endothelial cell antigen (MECA-32) antibody that recognizes a dimer of 50-55 kDa protein subunits present on all endothelial cells (Hallman et al., 1995; Leppink et al., 1989) (FIG. 3 B,C,H,I,N,O). Additional analyses involved immunostaining to reveal CD31/PE-CAM, or systemic infusion of a fluorescent-labeled lectin that binds to the endothelial lumen. In addition, tissue sections from peptide-infused mice were stained with an antibody recognizing NG2, a marker of the neovascular pericytes (Schlingemann et al., 1990, 1991) (FIG. 3 E,F,K,L,Q,R).

Experiment [2] relates to squamous cell carcinoma in a K14-HPV16 mouse. Kind of experiment: Homing to HPV tumor. It counts as in vivo. The following applies: FIG. 4A. As for the experimental part:
(§2) To determine whether phage identified to home to pancreatic tumors also home to other types of tumors, these phage were tested using animals having various types of tumors, including bTC3 subcutaneous tumor and MDA MB-435 subcutaneous tumor. bTC3 transplant tumors arise following subcutaneous inoculation of nude mice with cultured islet tumor-derived (bTC3) cells (Efrat et al., 1988). Since the vasculature of a subcutaneously grown bTC3 tumor derives from skin, we also tested another subcutaneous transplant tumor, arising from inoculation of the MDA-MB-435 human breast carcinoma cell line. Finally, K14-HPV16 mice, another well-studied transgenic mouse model of cancer that develop tumors of the squamous epithelial cells of the skin (Arbeit et al., 1994; Coussens et al., 1996), was used to compare RIP1-Tag2 islet tumors to a tumor with similar multistage pathogenesis arising in a different tissue.
(§3) Tumors were dissected from the ear or chest of K14-HPV16 mice. For the bTC3 allograft models, 10^6 bTC3 tumor cells (Efrat et al., 1988) were inoculated under the skin of the rear flank of nu/nu mice in a BALB/c background and allowed to grow until approximately 5 mm in size, and then used for experimental analysis. MDA-MB-435 xenograft models were generated by inoculating 10^6 tumor cells subcutaneously in the chest of nu/nu Balb/c mice. Tumors were used for the homing/binding experiments at 8-12 weeks after injection of the tumor cells.

The target of experiment [3] is T1, PDGFRβ (Mus musculus, UniProt P05622).
T1 construct: from tissue; host or cells: pancreatic islet tumors of RIP1-Tag2 transgenic mice
Kind of experiment: Co-localization of i.v. injected fluorescein-conjugated peptide with PDGFRβ immunostaining in RIP1-Tag2 tumors. It counts as in vivo. Particulars: tissue sections from RIP1-Tag2 tumors, FIG. 5B. As for the experimental part: as §1
FIG. 5A is a bar graph showing binding of RGR or RSR phage to 293 cells transfected with either PDGFRβ, VEGFR2, or non-transfected cells.

Experiment [4] deals with RIP1-Tag2 pancreatic tumor, bTC3-derived subcutaneous transplant tumor, K14-HPV16 squamous cell carcinoma. Kind of experiment: Relative homing efficiency of individual phage in various tumor models (FIG. 4A). It counts as in vivo, mouse. Particulars: phage from the RIP1-Tag2 tumor screen. As for the experimental part:
as §2, §3
FIG. 4A is bar graph showing homing efficiency of individual phage to a pancreatic tumor in a RIP1-Tag2 mouse, a bTC3-derived subcutaneous transplant tumor in a nude mouse, and a squamous cell carcinoma in a K14-HPV16 mouse.

Experiment [5] has as its system MDA MB-435 subcutaneous tumor. Kind of experiment: Homing to MDA-MB-435 subcutaneous tumor. Format: in vivo, mouse. The following applies: fluorescein-conjugated peptide i.v., FIG. 4B. The procedure: as §2, §3

Entries after “also recorded” stand apart in the source; their conditions may differ.

T1 sequence (P05622 32-1098): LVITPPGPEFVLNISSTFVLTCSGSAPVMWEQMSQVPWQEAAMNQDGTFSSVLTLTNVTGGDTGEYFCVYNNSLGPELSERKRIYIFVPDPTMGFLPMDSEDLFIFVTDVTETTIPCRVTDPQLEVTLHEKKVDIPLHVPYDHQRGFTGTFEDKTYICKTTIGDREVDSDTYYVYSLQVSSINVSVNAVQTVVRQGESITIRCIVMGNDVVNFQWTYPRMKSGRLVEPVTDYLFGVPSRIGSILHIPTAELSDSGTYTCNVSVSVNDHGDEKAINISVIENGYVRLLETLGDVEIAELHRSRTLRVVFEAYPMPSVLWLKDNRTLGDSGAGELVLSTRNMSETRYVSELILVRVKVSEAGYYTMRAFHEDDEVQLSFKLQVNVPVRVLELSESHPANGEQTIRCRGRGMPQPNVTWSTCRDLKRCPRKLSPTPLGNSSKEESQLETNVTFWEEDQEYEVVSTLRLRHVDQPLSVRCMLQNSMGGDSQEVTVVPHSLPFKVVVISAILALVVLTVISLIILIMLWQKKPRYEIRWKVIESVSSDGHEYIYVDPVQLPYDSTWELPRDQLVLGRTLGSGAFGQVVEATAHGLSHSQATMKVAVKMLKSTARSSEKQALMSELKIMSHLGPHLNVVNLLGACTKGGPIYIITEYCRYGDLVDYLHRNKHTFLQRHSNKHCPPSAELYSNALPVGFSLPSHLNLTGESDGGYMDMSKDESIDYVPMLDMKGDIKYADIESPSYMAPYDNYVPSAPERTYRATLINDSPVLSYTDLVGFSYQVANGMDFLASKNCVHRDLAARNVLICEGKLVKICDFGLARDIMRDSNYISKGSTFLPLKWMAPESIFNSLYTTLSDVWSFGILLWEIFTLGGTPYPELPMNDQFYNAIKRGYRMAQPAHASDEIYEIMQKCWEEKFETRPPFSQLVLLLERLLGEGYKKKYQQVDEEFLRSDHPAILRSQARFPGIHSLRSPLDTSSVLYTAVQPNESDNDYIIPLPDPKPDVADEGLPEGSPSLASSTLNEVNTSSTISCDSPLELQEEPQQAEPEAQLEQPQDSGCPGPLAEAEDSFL

CRGRRST [linear homing peptide]: in experiment [1], the “co-localization with MECA-32 or NG2 in adjacent exocrine pancreas or normal pancreatic islets” value is given as “no co-localization”. Also, the “co-localization with endothelial cell and pericyte markers in RIP1-Tag2 islet lesions” value in experiment [1] (MECA-32, NG2, FIG. 3) is “some co-localization both with endothelial cell and pericyte markers; also recorded: co-localized both with the endothelial cell and pericyte markers”. Further, in experiment [2], the “homing to HPV tumor” value was “did not home appreciably”. Besides, the figures for the “co-localization with PDGFRβ” value in experiment [3] and in experiment [3] (listed as CRGRRST) were “almost complete co-localization” and “co-localize”, respectively. Further, in experiment [4], the “relative homing efficiencies in the various tumor models (category)” value is given as “selectively home to RIP1-Tag2 tumors”. Further, the “homing to MDA tumor” value in experiment [5] is “did not home appreciably”.

These data come from patent US7598341B2, “Molecules that selectively home to vasculature of premalignant or malignant lesions of the pancreas and other organs” (Burnham Institue for Medical Research, priority 2003, dated 2009).
